Experiments:
Type in all cases: physicochemical
[1] = Stability test under high temperature conditions (60° C., 5 days), related substance; settings: for changes of the related substances in 5 days: high temperature of 60° C.; for Day 0: Related substance / Day 5: Related substance / Related material changes: 60° C.; for Day 0: Related substance: day 0, average of 5 groups; for Day 5: Related substance: day 5, average of 5 groups; for Related material changes: day 5 versus day 0
Protocol: Stability test of the crystalline form I of (R)-4-hydroxy-2-oxo-1-pyrrolidineacetamideunder high temperature conditions. The crystalline form I of (R)-4-hydroxy-2-oxo-1-pyrrolidinylacetamide prepared in Examples 1 and 3-7 was placed in a flat weighing bottle and spread into thin layers of <5 mm thick, sealed in a clean container respectively and placed at 60° C. for 5 days; samples were taken and detected on day 0 and day 5, respectively.

Solubility in water = test: Solubility in water
Clarity of solution = settings: average of 5 groups
Protocol: (§1) In this test, the angle of repose of the crystalline form I of (R)-4-hydroxy-2-oxo-1-pyrrolidineacetamide prepared by the methods of Examples 1 and 3-7 was measured by an injection method (fixed funnel method). The samples to be tested were poured into the funnel, and they were gently and evenly dropped into the center of the disc to form a cone, when the materials fell freely from the oblique edge of the powder along the edge of the disc, the feedings were stopped, and the angles of repose were determined by the protractor; the sample traits and the clarity of the solution were examined, each example was tested for 5 groups and the average was obtained, the results are as follows: […]

[2] = Angle of repose by injection method (fixed funnel method); settings: average of 5 groups
Protocol: as §1

| SMILES | changes of the related substances in 5 days [1] | changes of the related substances in 5 days ([1]; listed as crystalline form of (R)-4-hydroxy-2-oxo-1-pyrrolidineacetamide) | solubility (Solubility in water) [mg/mL] | clarity of solution (Clarity of solution) | Day 0: Related substance [1] [%] | Day 5: Related substance [1] [%] | Related material changes [1] [%] | angle of repose [2] [°] |
| --- | --- | --- | --- | --- | --- | --- | --- | --- |
| NC(=O)CN1C[C@H](O)CC1=O [(R)-4-hydroxy-2-oxo-1-pyrrolidineacetamide] | less than 0.15% | tiny | ≥ 100 |  |  |  |  |  |
| NC(=O)CN1C[C@H](O)CC1=O [Example 6, (R)-4-hydroxy-2-oxo-1-pyrrolidineacetamide] |  |  |  | clarification | 0.26 | 0.37 | 0.11 | 27.8 |
| NC(=O)CN1C[C@H](O)CC1=O [Example 5, (R)-4-hydroxy-2-oxo-1-pyrrolidineacetamide] |  |  |  | clarification | 0.25 | 0.37 | 0.12 | 27.8 |
| NC(=O)CN1C[C@H](O)CC1=O [Example 1, (R)-4-hydroxy-2-oxo-1-pyrrolidineacetamide] |  |  |  | clarification | 0.23 | 0.35 | 0.12 | 28 |

Further lines, results first:

| changes of the related substances in 5 days [1] | changes of the related substances in 5 days ([1]; listed as crystalline form of (R)-4-hydroxy-2-oxo-1-pyrrolidineacetamide) | solubility (Solubility in water) [mg/mL] | clarity of solution (Clarity of solution) | Day 0: Related substance [1] [%] | Day 5: Related substance [1] [%] | Related material changes [1] [%] | angle of repose [2] [°] | SMILES |
| --- | --- | --- | --- | --- | --- | --- | --- | --- |
|  |  |  | clarification | 0.22 | 0.36 | 0.14 | 28.3 | NC(=O)CN1C[C@H](O)CC1=O [Example 3, (R)-4-hydroxy-2-oxo-1-pyrrolidineacetamide] |
|  |  |  | clarification | 0.26 | 0.39 | 0.13 | 28.5 | NC(=O)CN1C[C@H](O)CC1=O [Example 4, (R)-4-hydroxy-2-oxo-1-pyrrolidineacetamide] |
|  |  |  | clarification | 0.22 | 0.33 | 0.11 | 28 | NC(=O)CN1C[C@H](O)CC1=O [Example 7, (R)-4-hydroxy-2-oxo-1-pyrrolidineacetamide] |

Reference: US10961192B2, “(R)-4-hydroxy-2-oxo-1-pyrrolidineacetamide crystal form, preparation method therefor, and application thereof” (CHONGQING RUZER PHARMACEUTICAL COMPANY LIMITED, priority 2017, dated 2021)
